Type in all cases: functional, organism-based
Experiment [1] relates to Anopheles stephensi. Briefly: Insecticidal in Anopheles stephensi assessed as mortality rate fed with blood of compound treated mouse at […], sc before 12 hrs and observed after 36 hrs relative to control.
The test system of experiment [2] is Anopheles stephensi. Put plainly: Insecticidal in Anopheles stephensi assessed as lethal concentration membrane-fed with compound treated blood.
Experiment [3] relates to Aedes aegypti. Briefly: Insecticidal in Aedes aegypti assessed as reduction in survivorship fed with blood of compound treated human at 150 microg/kg administered once. The note with it: dose 150.0 µg/kg.
Experiment [4] relates to Anopheles sp. Briefly: Insecticidal in Anopheles sp. assessed as mortality fed with compound treated human blood at 400 microg/kg in the presence of 6 mg/kg diethylcarbamazine citrate observed in 24 hrs relative to control. The note with it: dose 400.0 µg/kg.
The test system of experiment [5] is Anopheles stephensi. Briefly: Insecticidal in Anopheles stephensi assessed as lethal concentration membrane-fed with compound treated blood observed after 4 days. The conditions noted are these: time 4.0 day.
Experiment [6] has as its system Anopheles stephensi. Briefly: Insecticidal in Anopheles stephensi assessed as mortality rate membrane-fed with blood of compound treated mouse at 600 microg/kg observed within 6 days relative to control. The note with it: dose 600.0 µg/kg, time 6.0 day.
For experiment [7], the system named is Plasmodium vivax. Put plainly: Antimalarial activity against Plasmodium vivax assessed as reduction in […] in Anopheles sp. mosquito midgut fed with blood isolated from compound treated parasite-infected human at 40 ng/ml observed after 7 days relative to control. The note with it: time 7.0 day.
The test system of experiment [8] is Anopheles sp. Briefly: Insecticidal in Anopheles sp. infected with Plasmodium vivax assessed as percentage of survival midgut fed with blood isolated from compound treated parasite-infected human at 40 ng/ml observed after 7 days relative to control. The conditions noted are these: time 7.0 day.
In experiment [9] the test system is Anopheles sp. Briefly: Insecticidal in Anopheles sp. infected with Plasmodium vivax assessed as lethality fed with blood isolated from compound treated human observed for 5 days. The conditions noted are these: time 5.0 day.
Experiment [10] has as its system Anopheles sp. Put plainly: Insecticidal in Anopheles sp. infected with Plasmodium falciparum gametocytes assessed as mortality fed with compound treated bovine blood at 200 microg/kg observed within 5.5 days feeding at 15 days post treatment relative to control. The note with it: dose 200.0 µg/kg, time 5.5 day.
The subject of experiment [11] is Anopheles arabiensis. Put plainly: Insecticidal in Anopheles arabiensis assessed as mortality fed with compound treated bovine blood at 200 microg/kg observed within 2 to 4 days after blood feeding relative to control. The note with it: dose 200.0 µg/kg, time 2-4 day.
Experiment [12] deals with Anopheles arabiensis. Put plainly: Insecticidal in Anopheles arabiensis assessed as percentage of reduction in mortality in 3 day survivorship fed with compound treated bovine blood at 73 mg observed for 24 weeks relative to control.
Experiment [13] concerns Anopheles arabiensis. Put plainly: Insecticidal in Anopheles arabiensis assessed as reduction in fecundity fed with compound treated bovine blood at 200 microg/kg relative to control. The note with it: dose 200.0 µg/kg. Details: scale not given: the % may be the effect or the level left.

Consider one sequence from ChEMBL document CHEMBL5226321, “Ivermectin: A Promising Therapeutic for Fighting Malaria. Current Status and Perspective” (J Med Chem, 2021).

By mortality is commonly meant the percentage killed. By LC50 is commonly meant the concentration that kills 50% of the test population. A word on the inhibition: it is the percentage by which the read-out fell short of the control.

Regarding IVERMECTIN, the mortality in experiment [1] was 100%; in [4], 70%; in experiment [6], 85%; in experiment [10], 100%; in [11], 80%; in experiment [12] it was 50%. Moreover, the MLC in [2] was found to be 1 ppm. Moreover, the results for the LC50 in experiment [3] and in [5] were 0.601 µg/mL and 0.007 µg/mL, respectively. Also, the inhibition in experiment [7] is 86%. Moreover, the Survival in [8] was 22%. Moreover, the LC5 in [9] was 18.3 ng/mL. The Activity in [13] was found to be 79%.
